In the supplement of paper PMC11451515:

Tested on: NOMO1
Experiment: cell viability relative to DMSO control; higher = less cytotoxic
Conditions: 48 h
Summary of the method: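 Before seeding, each leukemia line was adapted for at least four passages in each medium. NOMO1 or SEM cells (500 cells/well) and P12-Ichikawa cells (1000 cells/well) went into 1536-well plates at 5 μl, then received library compounds in DMSO by pin dosing across 11 threefold concentrations, 47 μM to 0.79 nM. Readout was CellTiter-Glo One luminescence after 48 h at 37°C, and viability is given as a per-plate percentage of DMSO wells, with cell-free wells as background.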

[1] = HPLM + 10% dialyzed FBS, 0.000781 µM
[2] = HPLM + 10% dialyzed FBS, 0.00234 µM
[3] = HPLM + 10% dialyzed FBS, 0.00702 µM
[4] = HPLM + 10% dialyzed FBS, 0.0211 µM
[5] = HPLM + 10% dialyzed FBS, 0.0632 µM
[6] = HPLM + 10% dialyzed FBS, 0.19 µM
[7] = HPLM + 10% dialyzed FBS, 0.569 µM
[8] = HPLM + 10% dialyzed FBS, 1.71 µM
[9] = HPLM + 10% dialyzed FBS, 5.12 µM
[10] = HPLM + 10% dialyzed FBS, 15.4 µM
[11] = HPLM + 10% dialyzed FBS, 46.1 µM
[12] = RPMI 5 mM glucose + 10% FBS, 0.000781 µM
[13] = RPMI 5 mM glucose + 10% FBS, 0.00234 µM
[14] = RPMI 5 mM glucose + 10% FBS, 0.00702 µM
[15] = RPMI 5 mM glucose + 10% FBS, 0.0211 µM
[16] = RPMI 5 mM glucose + 10% FBS, 0.0632 µM
[17] = RPMI 5 mM glucose + 10% FBS, 0.19 µM
[18] = RPMI 5 mM glucose + 10% FBS, 0.569 µM
[19] = RPMI 5 mM glucose + 10% FBS, 1.71 µM
[20] = RPMI 5 mM glucose + 10% FBS, 5.12 µM
[21] = RPMI 5 mM glucose + 10% FBS, 15.4 µM
[22] = RPMI 5 mM glucose + 10% FBS, 46.1 µM
[23] = RPMI 5 mM glucose + 10% dialyzed FBS, 0.000781 µM
[24] = RPMI 5 mM glucose + 10% dialyzed FBS, 0.00234 µM
[25] = RPMI 5 mM glucose + 10% dialyzed FBS, 0.00702 µM
[26] = RPMI 5 mM glucose + 10% dialyzed FBS, 0.0211 µM
[27] = RPMI 5 mM glucose + 10% dialyzed FBS, 0.0632 µM
[28] = RPMI 5 mM glucose + 10% dialyzed FBS, 0.19 µM
[29] = RPMI 5 mM glucose + 10% dialyzed FBS, 0.569 µM
[30] = RPMI 5 mM glucose + 10% dialyzed FBS, 1.71 µM
[31] = RPMI 5 mM glucose + 10% dialyzed FBS, 5.12 µM
[32] = RPMI 5 mM glucose + 10% dialyzed FBS, 15.4 µM
[33] = RPMI 5 mM glucose + 10% dialyzed FBS, 46.1 µM

| Structure (SMILES) | cell viability [1] [%] | cell viability [2] [%] | cell viability [3] [%] | cell viability [4] [%] | cell viability [5] [%] | cell viability [6] [%] | cell viability [7] [%] | cell viability [8] [%] | cell viability [9] [%] | cell viability [10] [%] | cell viability [11] [%] | cell viability [12] [%] | cell viability [13] [%] | cell viability [14] [%] | cell viability [15] [%] | cell viability [16] [%] | cell viability [17] [%] | cell viability [18] [%] | cell viability [19] [%] | cell viability [20] [%] | cell viability [21] [%] | cell viability [22] [%] | cell viability [23] [%] | cell viability [24] [%] | cell viability [25] [%] | cell viability [26] [%] | cell viability [27] [%] | cell viability [28] [%] | cell viability [29] [%] | cell viability [30] [%] | cell viability [31] [%] | cell viability [32] [%] | cell viability [33] [%] |
| --- | --- | --- | --- | --- | --- | --- | --- | --- | --- | --- | --- | --- | --- | --- | --- | --- | --- | --- | --- | --- | --- | --- | --- | --- | --- | --- | --- | --- | --- | --- | --- | --- | --- |
| C=C[C@H]1CN2CCC1C[C@@H]2C(O)c1ccnc2ccc(OC)cc12 (stereo not given in full) | 111 | 133 | 115 | 107 | 135 | 116 | 128 | 108 | 105 | 125 | 102 | 111 | 116 | 114 | 108 | 127 | 120 | 119 | 119 | 116 | 107 | 104 | 110 | 119 | 116 | 121 | 124 | 110 | 127 | 117 | 106 | 107 | 100 |
| Nc1c2c(nc3ccccc13)CCCC2 | 129 | 105 | 122 | 125 | 118 | 100 | 117 | 31.8 | 83.6 | 35.5 | 10.3 | 113 | 123 | 115 | 117 | 108 | 117 | 115 | 41.6 | 98.3 | 40.2 | 8.53 | 118 | 105 | 112 | 119 | 128 | 111 | 111 | 67.9 | 80.1 | 51 | 19.2 |
| O=C(O)CCNC(=O)c1ccc(/N=N/c2ccc(O)c(C(=O)O)c2)cc1 | – | – | – | – | – | – | – | – | – | – | – | 106 | 125 | 113 | 122 | 110 | 110 | 117 | 106 | 117 | 116 | 76.7 | – | – | – | – | – | – | – | – | – | – | – |
| O=C(O)c1cccnc1Nc1cccc(C(F)(F)F)c1 | 112 | 124 | 129 | 104 | 122 | 131 | 150 | 142 | 132 | 129 | 135 | 105 | 116 | 108 | 116 | 110 | 128 | 124 | 122 | 125 | 132 | 120 | 97.1 | 101 | 101 | 114 | 114 | 117 | 120 | 111 | 115 | 120 | 106 |
| CN1\C=N/C2=CC=C(NC3=CC(=CC=C3C)NC(=O)C4=CC(=CC=C4)C(C)(C)C#N)C=C2C1=O | 97.8 | 107 | 96.4 | 105 | 92.7 | 94.6 | 76.8 | 76.3 | 52.1 | 52.7 | 19.1 | 93.6 | 95.1 | 111 | 99 | 89.6 | 88.5 | 81.2 | 75.6 | 47.7 | 46.3 | 28.1 | 110 | 92.4 | 92.9 | 101 | 91.2 | 79.2 | 76.6 | 65.5 | 46.8 | 46.3 | 28.6 |
| N[C@@H]1CONC1=O | 90.7 | 110 | 112 | 101 | 99.4 | 107 | 104 | 110 | 107 | 94.4 | 105 | 84.4 | 88.7 | 95.7 | 91.6 | 94.4 | 90.6 | 94.2 | 99.4 | 94.6 | 90.1 | 88.7 | 87.4 | 98.8 | 112 | 96 | 99.3 | 101 | 107 | 88 | 96.2 | 89.9 | 93.7 |
| COc1ccc2c(c1)[C@]13CCCCC1C(C2)N(C)CC3 (stereo not given in full) | – | – | – | – | – | – | – | – | – | – | – | 104 | 117 | 107 | 121 | 118 | 108 | 109 | 111 | 121 | 90.3 | 101 | 111 | 114 | 116 | 119 | 135 | 130 | 114 | 132 | 115 | 118 | 84.2 |
| CCCCN(CCCC)CC(O)c1cc(Cl)cc2c1-c1ccc(Cl)cc1/C2=C/c1ccc(Cl)cc1 (stereo not given) | 94.7 | 87.5 | 104 | 107 | 93.6 | 107 | 90.5 | 97.9 | 82.6 | 95 | 92.6 | 83.3 | 102 | 94.6 | 87.1 | 105 | 86.9 | 87.5 | 90.7 | 104 | 94.9 | 97.8 | 104 | 91.8 | 93.7 | 104 | 99.4 | 104 | 102 | 89.8 | 95.4 | 72.9 | 103 |
| CN1CCCN(CC1)C2=CC=C3C(=O)\C(=C/4SC5=C(C=CC=C5)N4C3=N2)C(=O)NCC6=CN=C(C)C=N6 | 127 | 122 | 108 | 130 | 110 | 96.6 | 125 | 105 | 116 | 115 | 94.2 | 106 | 103 | 99.8 | 94.1 | 94.4 | 107 | 101 | 105 | 97.3 | 92.4 | 86.7 | 103 | 105 | 111 | 91.2 | 119 | 115 | 102 | 98.7 | 82.9 | 89 | 84.8 |
| COc1c(C)c2c(c(O)c1C/C=C(\C)CCC(=O)O)C(=O)OC2 | 116 | 109 | 106 | 107 | 116 | 95.4 | 115 | 100 | 86.7 | 45.2 | 32.6 | 101 | 107 | 102 | 94.4 | 109 | 94.9 | 102 | 109 | 84.6 | 47.5 | 22.3 | 98.4 | 96.7 | 105 | 97.3 | 100 | 108 | 84.7 | 89.5 | 90.4 | 58 | 38.3 |
| Nc1ccc([S+](=O)([O-])Nc2ccnn2-c2ccccc2)cc1 | 85.1 | 97.6 | 104 | 101 | 108 | 98.6 | 100 | 98.3 | 107 | 102 | 113 | 84.7 | 98.5 | 97.8 | 105 | 98.9 | 97 | 99.4 | 95.6 | 102 | 94.1 | 96.8 | 81.4 | 90.1 | 91.8 | 95.1 | 100 | 104 | 94.7 | 93.8 | 90.1 | 92.6 | 101 |
| CCCNC(=O)Nc1ccc(Oc2ncnc3cc(OC)c(OC)cc23)cc1Cl | 96.9 | 98 | 84.1 | 95.7 | 97.7 | 87.9 | 103 | 81.8 | 71 | 71.6 | 73.5 | 89.6 | 90.7 | 84.7 | 95.7 | 86 | 90.6 | 81.9 | 90.3 | 87.4 | 82 | 77.6 | 97.8 | 92.4 | 101 | 96.7 | 90.9 | 88.4 | 86.7 | 84.4 | 84.7 | 81.9 | 70.5 |
| CN(C)CC(C)(C)CNc1nn2c(-c3ccccc3)nnc2cc1C1CCC1 | 113 | 110 | 117 | 126 | 113 | 109 | 116 | 110 | 91.9 | 39.5 | 22.4 | 107 | 98.4 | 103 | 123 | 103 | 110 | 111 | 122 | 116 | 87 | 15.6 | 91.6 | 110 | 103 | 105 | 102 | 95.5 | 116 | 109 | 100 | 103 | 27.7 |
| CC12CC3CC(C)(C1)CC(N)(C3)C2 | 119 | 111 | 120 | 98.4 | 125 | 139 | 134 | 129 | 107 | 89.2 | 49.7 | 105 | 116 | 133 | 113 | 122 | 128 | 134 | 108 | 127 | 100 | 58.5 | 111 | 105 | 114 | 111 | 116 | 132 | 135 | 120 | 113 | 102 | 78 |
| COc1cc2c(cc1OC)CN(CCc1ccc(NC(=O)c3cc(OC)c(OC)cc3NC(=O)c3cnc4ccccc4c3)cc1)CC2 | 118 | 121 | 123 | 122 | 128 | 122 | 109 | 119 | 114 | 95.3 | 94.1 | 107 | 106 | 123 | 118 | 123 | 118 | 127 | 106 | 107 | 107 | 96.5 | 118 | 122 | 113 | 126 | 115 | 126 | 116 | 124 | 120 | 102 | 91.5 |
| CC#CCn1c(N2CCC[C@@H](N)C2)nc2c1c(=O)n(Cc1nc(C)c3ccccc3n1)c(=O)n2C | 97.8 | 97.2 | 100 | 88.2 | 108 | 110 | 104 | 87.8 | 98.3 | 114 | 75.1 | 97.6 | 93.7 | 101 | 90.3 | 89 | 96.3 | 102 | 89 | 88.1 | 91.1 | 82 | 104 | 96.6 | 112 | 87.7 | 101 | 105 | 100 | 96.3 | 93.8 | 97.7 | 91.7 |
